Consider 6 molecules from US20090012071A1, “4-SUBSTITUTED-1H-ISOTHIAZOLO[5,4-B][1,4]OXAZINO[2,3,4-IJ]QUINOLINE-7,8(2H,9H)-DIONES AND RELATED COMPOUNDS AS ANTI-INFECTIVE AGENTS” (priority 2007, published 2009).

Data set [1] concerns MRSA S. aureus (FQR700699). The experiment in a line: Minimum inhibitory concentration (MIC) assay, broth microdilution. The conditions noted are these: for MIC MRSA: Table I. Details: MIC MRSA: unit not given beside the values. It counts as cell-based. The procedure:
(§1) The antimicrobial activity of the compounds of the invention may be evaluated by a number of methods, including the following visual minimum inhibitory concentration (MIC) assay. This assay determines the minimum concentration of compound required to inhibit growth of a bacterial strain.
(§2) Whole-cell antibacterial activity is determined by broth microdilution using conditions recommended by the NCCLS (see National Committee for Clinical Laboratory Standards. 2001. Performance standards for antimicrobial susceptibility testing: 11th informational supplement. Vol. 21, no. 1, M100-S11. National Committee for Clinical Laboratory Standards, Wayne, Pa.). Test compounds are dissolved in DMSO and diluted 1:50 in Mueller-Hinton II broth (Becton-Dickinson) to produce a 256 μg/ml stock solution. In a 96-well microtiter plate, the compound solution is serially two-fold diluted in Mueller-Hinton II broth. After the compounds are diluted, a 50 μl aliquot of the test organism (˜1×10^6 cfu/mL) is added to each well of the microtiter plate. The final test concentrations ranges from 0.125-128 μg/mL. Inoculated plates are incubated in ambient air at 37° C. for 18 to 24 hours. The organisms selected for testing included laboratory strains S. aureus ATCC 29213 and E. coli ATCC 25922 (strains purchased from American Type Culture Collection, Manassas, Va.), S. aureus FQR700699, and Paeruginosa 27853. The minimum inhibitory concentration (MIC) is determined as the lowest concentration of compound that inhibited visible growth of the test organism.
For orientation: Dilution methods test growth across graded concentrations, often in twofold steps.

Another data set deals with E. coli ATCC 25922. The description is as above. It counts as cell-based. The protocol:
as §1
as §2, with “The organisms selected for testing included laboratory strains S. aureus ATCC 29213 and E. coli ATCC 25922 (strains purchased from American Type Culture Collection, Manassas, Va.), S. aureus FQR700699, and Paeruginosa 27853.” left out

Data set [2] deals with S. aureus ATCC 29213 (MSSA). The description is as above. The format is cell-based. The conditions noted are these: methicillan sufficient S. aureus. The protocol:
as §1
as §2, with “The organisms selected for testing included laboratory strains S. aureus ATCC 29213 and E. coli ATCC 25922 (strains purchased from American Type Culture Collection, Manassas, Va.), S. aureus FQR700699, and Paeruginosa 27853.” left out

Data set [3] concerns CHO (Chinese hamster ovary). The following applies: CHO cells, positive control; cited from earlier work.
Data set [4] deals with Hep 2 (laryngeal carcinoma). The following applies: Hep 2 cells, positive control; cited from earlier work.

With `C[C@H]1COc2c(N3CCN(C)CC3)c(F)cc3c(=O)c4c(=O)[nH]sc4n1c23` [compound 6, (S)-5-fluoro-1-methyl-4-(4-methylpiperazin-1-yl)-1H-isothiazolo[5,4-b][1,4]oxazino[2,3,4-ij]quinoline-7,8(2H,9H)-dione], the “MIC MRSA” value in data set [1] is recorded as 4.
As to `C[C@H]1COc2c(N3CC[C@@H](C(C)(C)N)C3)c(F)cc3c(=O)c4c(=O)[nH]sc4n1c23` [Compound II, (S)-4-((R)-3-(2-aminopropan-2-yl)pyrrolidin-1-yl)-5-fluoro-1-methyl-1H-isothiazolo[5,4-B][1,4]oxazino[2,3,4-ij]quinoline-7,8(2H,9H)-dione], the “minimal inhibitory concentration (MIC)” value amounted to 0.062 in the data set on E. coli ATCC 25922, 0.016 in data set [2] and 0.125 in data set [1] (methicillan resistant S. aureus).
The term CC50 denotes the concentration that lowers cell viability or growth by half. On to `CC(C)(C)c1ccc(C(O)CCCN2CCC(C(O)(c3ccccc3)c3ccccc3)CC2)cc1` (stereo not drawn) [Terfenadine], for which the CC50 was 4.3 to 6.5 µM in data set [3] and 3 to 5 µM in data set [4].
As to `C[C@H]1COc2c(N3CC[C@H](N)C3)c(F)cc3c(=O)c4c(=O)[nH]sc4n1c23` [compound 7, (S)-4-((S)-3-aminopyrrolidin-1-yl)-5-fluoro-1-methyl-1H-isothiazolo[5,4-b][1,4]oxazino[2,3,4-ij]quinoline-7,8(2H,9H)-dione], the “MIC MRSA” value in data set [1] was 1.
Still for that read-out and setting: in the case of `C[C@H]1COc2c(N3CC[C@@H](CN)C3)c(F)cc3c(=O)c4c(=O)[nH]sc4n1c23` [compound 8, (S)-4-((S)-3-(aminomethyl)pyrrolidin-1-yl)-5-fluoro-1-methyl-1H-isothiazolo[5,4-b][1,4]oxazino[2,3,4-ij]quinoline-7,8(2H,9H)-dione] it was 0.5; in that of `C[C@H]1COc2c(N3CCNCC3)c(F)cc3c(=O)c4c(=O)[nH]sc4n1c23` [compound 9, (S)-5-fluoro-1-methyl-4-(piperazin-1-yl)-1H-isothiazolo[5,4-b][1,4]oxazino[2,3,4-ij]quinoline-7,8(2H,9H)-dione], 8.
